Data on eight molecules can be found in paper PMC10507666, “Trifluoromethylthiolation of Tryptophan and Tyrosine Derivatives: A Tool for Enhancing the Local Hydrophobicity of Peptides” (The Journal of Organic Chemistry, 2023).

Where a name gives a salt, the structure may show the parent alone. Residues, ends and D or L forms follow the SMILES beside them.

The nature of series [1]: Chromatographic hydrophobicity index (CHI/HI, ϕ0) determination by isocratic RP-HPLC at pH 7. The series is classed as physicochemical. Particulars: for Hydrophobicity index (HI): chromatographic, ϕ0 = –log k'w/S, pH 7, 50 mM ammonium acetate in mQ H2O / MeCN (6–22%), linear regression of four log k' values per peptide, UV 254 nm, Figure 1A; for Hydrophobicity index (HI) / k' (retention factor) / log(k'): isocratic RP-HPLC; for k' (retention factor) / log(k'): pH 7, UV 254 nm; for intercept log k'w at MeCN% = 0: linear regression of log k' versus MeCN content, pH 7, 50 mM ammonium acetate, Figure S5; for ΔHI (HI(CF3S)AA – HIAA): shift versus non-fluorinated tripeptide counterpart, chromatographic HI at pH 7. The source says: The hydrophobicity index (HI) shift ΔHI (HI(CF3S)AA – HIAA) is an assessment of the contribution of the CF3S substituent to the increase in local hydrophobicity. This method, developed by Valkó et al.,[27] has already been successfully applied to measure the increased local hydrophobicity of peptides containing fluorinated AAs.[6b],[28] This short peptide sequence was chosen to prevent the formation of secondary structures that could affect hydrophobicity (see the Supporting Information, Chapter 6, for details). […] It is noteworthy that the replacement of the Tyr residue with its CF3S-Tyr analogue provides a higher local enhancement of the hydrophobicity (ΔHI = HI(CF3S)Tyr – HITyrca. 12 units) compared to the Trp series (ΔHI = HI(CF3S)Trp – HITrpca. 8 units).
6. Hydrophobicity index determination
The peptides were prepared according to the SPPS general procedure.
The chromatographic hydrophobicity index (CHI) was determined according to the protocols described previously. 17 Experiments were performed at pH 7 using 50 mM ammonium acetate in mQ H2O and MeCN as mobile phase. Peptides 9-12 were dissolved in 50 mM ammonium acetate before injection (25 µL injection volume). Retention factors (k') were determined at λ = 254 nm at various MeCN concentrations ranging from 6–22% (k' = (tR–t0) / […]). Then, log k' was expressed as a function of MeCN content and linear regression was applied to four values per peptide. The intercept log k'w at MeCN% = 0 and the slopes S were extracted from the linear fit for each peptide (correlation coefficient: R2 > 0.99). The isocratic hydrophobicity index (CHI) was calcd for each peptide using the following equation: […]
RP-HPLC analysis: >95% purity; tR = 10.42 min (7% MeCN in ammonium acetate buffer (pH […]
(1 picture or pasted object on this page, not shown here)
Table of retention times (tR), dead times (t0), and calculated log k' and CHI for peptides 9-12 at pH 7: […]
Peptide 12 (22% MeCN in 50 mM ammonium acetate buffer, pH 7, 1 mL/min):
Chromatographic hydrophobicity index C HI (pH 7) of peptides 9-12 […]
Figure S5: RP-HPLC determination of the chromatographic hydrophobicity index CHI for peptides 9-12 at pH 7 by linear regression of log k' values as a function of MeCN content.

Series [2] in a line: RP-HPLC retention time of EM-1 analogues (gradient). The series is classed as physicochemical. Particulars: RP-HPLC analysis, gradient 20% → 60% MeCN + 0.1% TFA in H2O + 0.1% TFA; retention time used as support for enhanced local hydrophobicity.
The conditions of series [3]: CF3S-tyramine versus tyramine, from pKa values in H2O/D2O 90:10. The source says:
Figure 1 Biophysical property evaluation.
Finally, we assessed the influence of the CF3S group on the acidity of the vicinal phenol function in a simplified tyramine model carrying an ortho CF3S.

The mark [4] stands for this setting: 12% MeCN in 50 mM ammonium acetate buffer.
Setting [5] is: 13% MeCN in 50 mM ammonium acetate buffer.
Setting [6] is: 14% MeCN in 50 mM ammonium acetate buffer.
Where [7] appears, read: 15% MeCN in 50 mM ammonium acetate buffer.
[8] abbreviates: 17% MeCN in 50 mM ammonium acetate buffer.
Where [9] appears, read: 18% MeCN in 50 mM ammonium acetate buffer.
Setting [10] is: 19% MeCN in 50 mM ammonium acetate buffer.
[11] abbreviates: 20% MeCN in 50 mM ammonium acetate buffer.
Where [12] appears, read: 21% MeCN in 50 mM ammonium acetate buffer.
Where [13] appears, read: 22% MeCN in 50 mM ammonium acetate buffer.
[14] abbreviates: 6% MeCN in 50 mM ammonium acetate buffer.
[15] abbreviates: 7% MeCN in 50 mM ammonium acetate buffer.
Setting [16] is: 8% MeCN in 50 mM ammonium acetate buffer.
[17] abbreviates: 9% MeCN in 50 mM ammonium acetate buffer.

With `CC(C)C[C@H](NC(=O)[C@H](Cc1c[nH]c2ccccc12)NC(=O)[C@H](C)N)C(=O)O` [compound 10, TFA·H2N-Ala-Trp-Leu-OH] (H-Ala-Trp-Leu-OH), the “Hydrophobicity index (HI)” value in series [1] turned out to be 19.13. Besides, the “k' (retention factor)” value in series [1] (setting [4]) was 7.397; in series [1] (setting [5]) it was 5.507; in series [1] (setting [6]), 4.188; in series [1] (setting [7]), 3.191. Further, the “log(k')” value is 0.869 in series [1] (setting [4]), 0.741 in series [1] (setting [5]), 0.622 in series [1] (setting [6]) and 0.504 in series [1] (setting [7]). For the same molecule, the “intercept log k'w at MeCN% = 0” value in series [1] is given as 2.3234.
Turning to `CC(C)C[C@H](NC(=O)[C@H](Cc1ccc(O)c(SC(F)(F)F)c1)NC(=O)[C@H](C)N)C(=O)O` [compound 11, TFA·H2N-Ala-(CF3S)Tyr-Leu-OH], the “Hydrophobicity index (HI)” value in series [1] turned out to be 23.27. Moreover, the “k' (retention factor)” value in series [1] (setting [7]) is given as 9.198; in series [1] (setting [8]) it was 5.352; in series [1] (setting [9]), 4.091; in series [1] (setting [10]) it was 3.149. In addition, the “log(k')” value in series [1] (setting [7]) is 0.964; in series [1] (setting [8]), 0.729; in series [1] (setting [9]), 0.612; in series [1] (setting [10]), 0.498. In addition, the “intercept log k'w at MeCN% = 0” value in series [1] was determined as 2.7107. In addition, the “ΔHI (HI(CF3S)AA – HIAA)” value in series [1] was “ca. 12 units”.
With `NC(=O)[C@H](Cc1ccccc1)NC(=O)[C@H](Cc1c[nH]c2ccccc12)NC(=O)[C@@H]1CCCN1C(=O)[C@@H](N)Cc1ccc(O)c(SC(F)(F)F)c1` [(CF3S)Tyr-EM-1], in series [2], the “tR” value came out at 11.6 min.
For the molecule `NC(=O)[C@H](Cc1ccccc1)NC(=O)[C@H](Cc1c(SC(F)(F)F)[nH]c2ccccc12)NC(=O)[C@@H]1CCCN1C(=O)[C@@H](N)Cc1ccc(O)cc1` [(CF3S)Trp-EM-1], in series [2], the “tR” value is 10.9 min.
On to CF3S-tyramine [6e], for which the “increase of the acidity of the vicinal hydroxyl group” value in series [3] is 100 fold.
On to `CC(C)C[C@H](NC(=O)[C@H](Cc1c(SC(F)(F)F)[nH]c2ccccc12)NC(=O)[C@H](C)N)C(=O)O` [compound 12, TFA·H2N-Ala-(CF3S)Trp-Leu-OH], for which the “Hydrophobicity index (HI)” value in series [1] was found to be 27.15. Besides, the “k' (retention factor)” value in series [1] (setting [10]) is 9.031; in series [1] (setting [11]) it was 6.844; in series [1] (setting [12]), 5.211; in series [1] (setting [13]) it was 4.025. The “log(k')” value in series [1] (setting [10]) was found to be 0.956; in series [1] (setting [11]) it was 0.835; in series [1] (setting [12]), 0.717; in series [1] (setting [13]), 0.605. Further, the “intercept log k'w at MeCN% = 0” value in series [1] is 3.1793. Moreover, the “ΔHI (HI(CF3S)AA – HIAA)” value in series [1] is “ca. 8 units”.
In the case of `CC(C)C[C@H](NC(=O)[C@H](Cc1ccc(O)cc1)NC(=O)[C@H](C)N)C(=O)O` [compound 9, TFA·H2N-L-Ala-L-Tyr-L-Leu-OH] (H-Ala-Tyr-Leu-OH), the “Hydrophobicity index (HI)” value in series [1] is listed as 11.37. Moreover, the “k' (retention factor)” value in series [1] (setting [14]) was 6.432; in series [1] (setting [15]) it was 4.433; in series [1] (setting [16]), 3.166; in series [1] (setting [17]), 2.284. Moreover, the “log(k')” value is listed as 0.808 in series [1] (setting [14]), 0.647 in series [1] (setting [15]), 0.501 in series [1] (setting [16]) and 0.359 in series [1] (setting [17]). Besides, the “intercept log k'w at MeCN% = 0” value in series [1] is listed as 1.6998.
Consider `NC(=O)[C@H](Cc1ccccc1)NC(=O)[C@H](Cc1c[nH]c2ccccc12)NC(=O)[C@@H]1CCCN1C(=O)[C@@H](N)Cc1ccc(O)cc1` [EM-1, endomorphin-1, reference compound], for which the “tR” value in series [2] is recorded as 8.1 min.
